From PubChem BioAssay AID248 (DTP/NCI, 2004)
“And” between values parts separate entries of the source, which are not always exact repeats. Equal entries are not always repeated. Inconclusive results and toxic doses are left out. Cut-off read from the data, not from the text of the source: active = T/C of 150% or more; inactive = T/C below 125%.

System: L1210 leukemia ip in BDF1 mice, survival T/C
Experiment: NCI In Vivo Anticancer Drug Screen. Data for tumor model L1210 Leukemia (intraperitoneal) in B6D2F1 (BDF1) mice
Conditions: endpoint: mean survival time, higher = longer survival
Summary of the method: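 Antitumor effect is assessed in tumor-bearing animals. Survival in the compound arm is compared with a vehicle-dosed control arm and expressed as their quotient.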

[1] = dose: 100.0 mg/kg/injection, schedule: Q01DX001 (ip), vehicle: saline
[2] = dose: 200.0 mg/kg/injection, schedule: Q01DX001 (ip), vehicle: saline
[3] = dose: 400.0 mg/kg/injection, schedule: Q01DX001 (ip), vehicle: saline
[4] = dose: 100.0 mg/kg/injection, schedule: Q04DX003 (ip), vehicle: Klucel (hydroxypropylcellulose) (HPC)
[5] = dose: 200.0 mg/kg/injection, schedule: Q04DX003 (ip), vehicle: Klucel (hydroxypropylcellulose) (HPC)
[6] = dose: 400.0 mg/kg/injection, schedule: Q04DX003 (ip), vehicle: Klucel (hydroxypropylcellulose) (HPC)
[7] = dose: 100.0 mg/kg/injection, schedule: Q04DX003 (ip), vehicle: saline
[8] = dose: 200.0 mg/kg/injection, schedule: Q04DX003 (ip), vehicle: saline
[9] = dose: 12.5 mg/kg/injection, schedule: Q01DX009 (ip), vehicle: saline
[10] = dose: 25.0 mg/kg/injection, schedule: Q01DX009 (ip), vehicle: saline
[11] = dose: 100.0 mg/kg/injection, schedule: Q01DX001 (ip), vehicle: carboxymethylcellulose (CMC)
[12] = dose: 100.0 mg/kg/injection, schedule: Q01DX001 (ip), vehicle: Klucel (hydroxypropylcellulose) (HPC)

Measured: T/C

O=[N+]([O-])c1ccc(SCN(CSc2ccc([N+](=O)[O-])cc2)Cc2ccccc2)cc1
inactive: [1] 96 % of control | [2] 102 % of control | [3] 90 % of control

OCC1(CO)CCCCC1
inactive: [4] 105 % of control | [5] 109 % of control | [6] 105 % of control

O=C(CCCN1CCC(O)CC1)c1ccccc1
inactive: [7] 90 % of control | [8] 104 % of control

O=Cc1ccc(O)c(CN2CCCCC2)c1
inactive: dose: 6.25 mg/kg/injection, schedule: Q01DX009 (ip), vehicle: saline 94 % of control | dose: 6.25 mg/kg/injection, schedule: Q04DX003 (ip), vehicle: saline 100 % of control | [9] 107 % of control | dose: 12.5 mg/kg/injection, schedule: Q04DX003 (ip), vehicle: saline 96 % of control | [10] 96 % of control | dose: 25.0 mg/kg/injection, schedule: Q04DX003 (ip), vehicle: saline 103 % of control

CC(c1c[nH]c2ccccc12)N1CCCCC1 (stereo not given)
inactive: [9] 115 % of control | [10] 107 % of control | dose: 25.0 mg/kg/injection, schedule: Q04DX003 (ip), vehicle: acetone 103 % of control | dose: 50.0 mg/kg/injection, schedule: Q01DX009 (ip), vehicle: saline 109 % of control | dose: 50.0 mg/kg/injection, schedule: Q04DX003 (ip), vehicle: acetone 95 % of control | [11] 96 % of control

O=C1c2ccccc2C(=O)c2cc3cc(Cl)ccc3cc21
inactive: [4] 90 % of control | [5] 87 % of control | [6] 95 % of control

Cc1cc(C)c([As](=O)(O)O)c([N+](=O)[O-])c1
inactive: [1] 90 % of control | [2] 101 % of control | [3] 104 % of control

O=C(CC(=O)NO)NO
inactive: dose: 100.0 mg/kg/injection, schedule: Q04DX002 (ip), vehicle: saline with Tween-80 103 % of control | dose: 100.0 mg/kg/injection, schedule: Q04DX002 (ip), vehicle: saline 97 % of control | dose: 200.0 mg/kg/injection, schedule: Q04DX002 (ip), vehicle: saline with Tween-80 97 % of control | dose: 200.0 mg/kg/injection, schedule: Q04DX002 (ip), vehicle: saline 100 % of control | dose: 400.0 mg/kg/injection, schedule: Q04DX002 (ip), vehicle: saline with Tween-80 97 % of control | dose: 400.0 mg/kg/injection, schedule: Q04DX002 (ip), vehicle: saline 100 % of control

CCCCCCCCCCCC[Si](Cl)(Cl)Cl
inactive: dose: 75.0 mg/kg/injection, schedule: Q01DX001 (ip), vehicle: saline 105 % of control

CC(=O)OCC1OC(=O)C(C)N(C)C(=O)CN(C)C(=O)C2C(=O)CC(C)N2C(=O)C(C(C)C)NC(=O)C1NC(=O)c1c2nc3c(C(=O)NC4C(=O)NC(C(C)C)C(=O)N5C(C)CC(OC(C)=O)C5C(=O)N(C)CC(=O)N(C)C(C(C)C)C(=O)OC4C)ccc(C)c3oc-2c(C)c(=O)c1N (stereo not given)
inactive: dose: 0.05 mg/kg/injection, schedule: Q01DX009 (ip), vehicle: saline with Tween-80 94 % of control | dose: 0.1 mg/kg/injection, schedule: Q01DX009 (ip), vehicle: saline with Tween-80 102 % of control | dose: 0.15 mg/kg/injection, schedule: Q04DX003 (ip), vehicle: saline with Tween-80 95 % of control | dose: 0.2 mg/kg/injection, schedule: Q01DX009 (ip), vehicle: saline with Tween-80 112 % of control | dose: 0.3 mg/kg/injection, schedule: Q04DX003 (ip), vehicle: saline with Tween-80 100 % of control | dose: 0.4 mg/kg/injection, schedule: Q01DX001 (ip), vehicle: saline with Tween-80 102 % of control | dose: 0.4 mg/kg/injection, schedule: Q01DX009 (ip), vehicle: saline with Tween-80 118 % of control | dose: 0.6 mg/kg/injection, schedule: Q04DX003 (ip), vehicle: saline with Tween-80 111 % of control | dose: 0.8 mg/kg/injection, schedule: Q01DX001 (ip), vehicle: saline with Tween-80 118 % of control | dose: 1.2 mg/kg/injection, schedule: Q04DX003 (ip), vehicle: saline with Tween-80 118 % of control | dose: 1.6 mg/kg/injection, schedule: Q01DX001 (ip), vehicle: saline with Tween-80 112 % of control | dose: 2.4 mg/kg/injection, schedule: Q04DX003 (ip), vehicle: saline with Tween-80 119 % of control | dose: 3.2 mg/kg/injection, schedule: Q01DX001 (ip), vehicle: saline with Tween-80 119 % of control | dose: 6.4 mg/kg/injection, schedule: Q01DX001 (ip), vehicle: saline with Tween-80 102 % of control

N#CC(c1ccccc1)N1CCOCC1 (stereo not given)
inactive: [4] 91 % of control | [5] 96 % of control | [6] 95 % of control

COC(=O)C1C(O)C(C)C(O)OC1C(C)C(O)C(C)/C=C\C=C(/C)C(=O)Nc1c(C)c(OC(C)=O)c2c(c1O)C(=O)C(C)=C1OCOC(/C(C)=C/C(C)=O)=C12 (stereo not given)
inactive: [7] 95 % of control | [8] 102 % of control | dose: 400.0 mg/kg/injection, schedule: Q04DX003 (ip), vehicle: saline 93 % of control

CS(=O)(=O)OCCN(CCOS(C)(=O)=O)c1ccc(C=Nc2cc(Br)c(O)c(Br)c2)cc1
inactive: dose: 20.0 mg/kg/injection, schedule: Q04DX003 (ip), vehicle: Klucel (hydroxypropylcellulose) (HPC) 120 % of control | dose: 40.0 mg/kg/injection, schedule: Q04DX003 (ip), vehicle: Klucel (hydroxypropylcellulose) (HPC) 104 % of control | dose: 80.0 mg/kg/injection, schedule: Q04DX003 (ip), vehicle: Klucel (hydroxypropylcellulose) (HPC) 96 % of control | [4] 113 % of control

O=C(CCCC(=O)NNC(=O)Nc1ccccc1Cl)NNC(=O)Nc1ccccc1Cl
inactive: dose: 50.0 mg/kg/injection, schedule: Q01DX001 (ip), vehicle: saline 102 % of control | [1] 96 % of control | [2] 100 % of control | [3] 93 % of control

O=C1OCC/C1=C/OCCO/C=C1\CCOC1=O
inactive: dose: 100.0 mg/kg/injection, schedule: Q04DX002 (ip), vehicle: Klucel (hydroxypropylcellulose) (HPC) 94 % of control | dose: 200.0 mg/kg/injection, schedule: Q04DX002 (ip), vehicle: Klucel (hydroxypropylcellulose) (HPC) 90 % of control

CCc1c(CO)cnc(C)c1OP(=O)(O)O
inactive: [11] 100 % of control | dose: 200.0 mg/kg/injection, schedule: Q01DX001 (ip), vehicle: carboxymethylcellulose (CMC) 96 % of control | dose: 400.0 mg/kg/injection, schedule: Q01DX001 (ip), vehicle: carboxymethylcellulose (CMC) 102 % of control

CCOc1cccc2c1OC(CN1CCC3(CC1)C(=O)NCN3c1ccccc1)CO2 (stereo not given)
inactive: [4] 116 % of control | [5] 115 % of control | [6] 115 % of control

CCC(C(O)c1ccccc1)[N+](=O)[O-] (stereo not given)
inactive: dose: 100.0 mg/kg/injection, schedule: Q04DX003 (ip), vehicle: other 100 % of control | dose: 200.0 mg/kg/injection, schedule: Q04DX003 (ip), vehicle: other 100 % of control | dose: 400.0 mg/kg/injection, schedule: Q04DX003 (ip), vehicle: other 96 % of control

O=C(O)c1ccccc1NC(=S)c1ccccc1
inactive: dose: 25.0 mg/kg/injection, schedule: Q04DX002 (ip), vehicle: other 96 % of control | dose: 50.0 mg/kg/injection, schedule: Q04DX002 (ip), vehicle: other 96 % of control | dose: 100.0 mg/kg/injection, schedule: Q04DX002 (ip), vehicle: other 93 % of control and 104 % of control

COC1=NS(=O)(=O)C2CCCCCCC2O1 (stereo not given)
inactive: dose: 25.0 mg/kg/injection, schedule: Q01DX001 (ip), vehicle: Klucel (hydroxypropylcellulose) (HPC) 102 % of control | dose: 25.0 mg/kg/injection, schedule: Q04DX003 (ip), vehicle: Klucel (hydroxypropylcellulose) (HPC) 92 % of control | dose: 50.0 mg/kg/injection, schedule: Q01DX001 (ip), vehicle: Klucel (hydroxypropylcellulose) (HPC) 94 % of control | dose: 50.0 mg/kg/injection, schedule: Q04DX003 (ip), vehicle: Klucel (hydroxypropylcellulose) (HPC) 95 % of control | [12] 94 % of control | [4] 95 % of control

COC(=O)c1cc(SC)nc(SC)n1
inactive: [4] 90 % of control | [5] 111 % of control | [6] 101 % of control

COC(=O)c1ccccc1NC(=O)Nc1cc(OC)ccc1OC
inactive: dose: 100.0 mg/kg/injection, schedule: Q01DX009 (ip), vehicle: Klucel (hydroxypropylcellulose) (HPC) 98 % of control | dose: 200.0 mg/kg/injection, schedule: Q01DX009 (ip), vehicle: Klucel (hydroxypropylcellulose) (HPC) 102 % of control | dose: 400.0 mg/kg/injection, schedule: Q01DX009 (ip), vehicle: Klucel (hydroxypropylcellulose) (HPC) 93 % of control

O=C1/C(=C\c2ccccc2)Sc2cc[nH]c21
inactive: [12] 96 % of control | dose: 200.0 mg/kg/injection, schedule: Q01DX001 (ip), vehicle: Klucel (hydroxypropylcellulose) (HPC) 105 % of control | dose: 400.0 mg/kg/injection, schedule: Q01DX001 (ip), vehicle: Klucel (hydroxypropylcellulose) (HPC) 96 % of control
